13 molecules from PMC8512562, “Semisynthetic Derivatives of Selected Amaryllidaceae Alkaloids as a New Class of Antimycobacterial Agents” (Molecules, 2021) can be followed below.

As usually defined, the MIC is the smallest concentration in the dilution series that meets the test's criterion for growth inhibition.

The structures appear in SMILES notation. Values after ≈ are worked out from the molar mass of the structure shown. Read-outs that look alike come from different tables or passages of the source.

Common to all, as to assay type: cell-based
For test [1], the system named is Mycobacterium smegmatis DSM 43465 (ATCC 607). Nature of the test: Antimycobacterial screening (microdilution broth, resazurin) against M. smegmatis. The conditions noted are these: for MIC: Mycolicibacterium smegmatis, read-out: MIC M. smegmatis.
In test [2] the test system is Mycobacterium aurum DSM 43999 (ATCC 23366). Nature of the test: Antimycobacterial screening (microdilution broth, resazurin) against M. aurum. The conditions noted are these: for MIC: Mycolicibacterium aurum, read-out: MIC M. aurum.
Test [3] has as its system Mycobacterium tuberculosis H37Ra. Nature of the test: Antimycobacterial screening (microdilution broth, resazurin) against M. tuberculosis H37Ra. The conditions noted are these: for MIC: Mycobacterium tuberculosis. (Dilution methods test growth across graded concentrations, often in twofold steps.)
[4] abbreviates: H37RA, read-out: MIC Mtb H37Ra (µM).
The mark [5] stands for this setting: M. tuberculosis H37Ra, resazurin added after 120 h, read-out: MIC Mtb H37Ra.
The mark [6] stands for this setting: range of MIC of the standards in the assay.

`COc1cccc(C(=O)O[C@H]2C=C[C@@]34CCN(C)Cc5ccc(OC)c(c53)O[C@H]4C2)c1` [1k, 6-O-(3-methoxybenzoyl)galanthamine]: the MIC worked out at 62.5 µg/mL (≈ 148 µM) in test [1] (48 h), 31.2 µg/mL (≈ 74.1 µM) in test [2] (72 h), 68.3 µM in test [3] (setting [4]) and 31.2 µg/mL in test [3] (setting [5]).

On to `COc1ccc2c3c1O[C@H]1C[C@@H](OC(=O)c4ccc(C)cc4)C=C[C@@]31CCN(C)C2` [1d, 6-O-(4-methylbenzoyl)galanthamine], for which the minimal inhibitory concentration (MIC) in test [1] (48 h) is 31.2 µg/mL (≈ 77.1 µM); in test [2] (72 h), 15.6 µg/mL (≈ 38.5 µM); in test [3] (setting [4]) it was 35.4 µM; in test [3] (setting [5]) it was 15.6 µg/mL.

In the case of `COc1ccc2c3c1O[C@H]1C[C@@H](OC(=O)c4cccc(C)c4)C=C[C@@]31CCN(C)C2` [1c, 6-O-(3-methylbenzoyl)galanthamine], the minimal inhibitory concentration (MIC) in test [1] (48 h) was 31.2 µg/mL (≈ 77.1 µM); in test [2] (72 h), 15.6 µg/mL (≈ 38.5 µM); in test [3] (setting [4]), 35.4 µM; in test [3] (setting [5]), 15.6 µg/mL.

For `COC1CC2C(=CC1O)C1CN2Cc2cc3c(cc21)OCO3` (stereo not shown) [3-O-methylpancracine (3), 3-O-methylpancracine], the minimum inhibitory concentration (MIC) is ≥ 500 µg/mL in test [1] (48 h), ≥ 500 µg/mL in test [2] (72 h), ≥ 1660 µM in test [3] (setting [4]) and ≥ 500 µg/mL in test [3] (setting [5]).

On to `COc1cc2c(cc1OC)[C@@H]1[C@H](O)[C@@H](OC)C=C3CCN(C2)[C@H]31` [galanthine (6), galanthine], for which the MIC is ≥ 500 µg/mL in test [1] (48 h), 250 µg/mL (≈ 788 µM) in test [2] (72 h), 788 µM in test [3] (setting [4]) and 250 µg/mL in test [3] (setting [5]).

On to `O[C@H]1[C@H]2c3cc4c(cc3CN3CCC(=C[C@@H]1O)[C@H]23)OCO4` [lycorine (7), lycorine], for which the minimum inhibitory concentration (MIC) in test [1] (48 h) is ≥ 500 µg/mL; in test [2] (72 h), ≥ 500 µg/mL; in test [3] (setting [4]), ≥ 1740 µM; in test [3] (setting [5]), ≥ 500 µg/mL.

Consider `COc1cc(OC)cc(C(=O)O[C@H]2C=C[C@@]34CCN(C)Cc5ccc(OC)c(c53)O[C@H]4C2)c1` [1n, 6-O-(3,5-dimethoxybenzoyl)galanthamine], for which the MIC in test [1] (48 h) turned out to be 31.2 µg/mL (≈ 69.2 µM); in test [2] (72 h) it was 31.2 µg/mL (≈ 69.2 µM); in test [3] (setting [4]), 34.6 µM; in test [3] (setting [5]), 15.6 µg/mL.

As to `O[C@@H]1C=C[C@]23CCN(Cc4cc5c(cc42)OCO5)[C@H]3C1` [vittatine (4), vittatine], the MIC in test [1] (48 h) was ≥ 500 µg/mL; in test [2] (72 h), 250 µg/mL (≈ 921 µM); in test [3] (setting [4]) it was ≥ 1840 µM; in test [3] (setting [5]) it was ≥ 500 µg/mL.

For the molecule `COc1cc(C(=O)O[C@H]2C=C[C@@]34CCN(C)Cc5ccc(OC)c(c53)O[C@H]4C2)cc(OC)c1OC` [1o, 6-O-(3,4,5-trimethoxybenzoyl)galanthamine], the minimal inhibitory concentration (MIC) is 250 µg/mL (≈ 519 µM) in test [1] (48 h), 125 µg/mL (≈ 260 µM) in test [2] (72 h), 121 µM in test [3] (setting [4]) and 62.5 µg/mL in test [3] (setting [5]).

For `COc1ccccc1C(=O)O[C@H]1C=C[C@@]23CCN(C)Cc4ccc(OC)c(c42)O[C@H]3C1` [1j, 6-O-(2-methoxybenzoyl)galanthamine], the MIC in test [1] (48 h) is 250 µg/mL (≈ 593 µM); in test [2] (72 h) it was 125 µg/mL (≈ 297 µM); in test [3] (setting [4]), 148 µM; in test [3] (setting [5]) it was 62.5 µg/mL.

`O=C(O)c1cn(C2CC2)c2cc(N3CCNCC3)c(F)cc2c1=O` [ciprofloxacin, reference compound]: the MIC in test [1] (resazurin added after 48 h) turned out to be 0.125 µg/mL (≈ 0.377 µM); in test [2] (resazurin added after 72 h), 0.0156 µg/mL (≈ 0.0472 µM); in test [3] (setting [4]), 0.75 µM; in test [3] (setting [5]) it was 0.25 µg/mL. Also, in test [1] (setting [6]), the “MIC values for standards, range, M. smegmatis” value fell in the range of 0.0625 to 0.125 µg/mL. Moreover, the “MIC values for standards, range, M. aurum” value in test [2] (setting [6]) fell in the range of 0.0078 to 0.0156 µg/mL. In test [3] (setting [6]), the “MIC values for standards, range, M. tuberculosis” value was in the range of 0.125 to 0.25 µg/mL.

Turning to `COc1ccc2c3c1O[C@H]1C[C@@H](OC(=O)c4ccco4)C=C[C@@]31CCN(C)C2` [1s, 6-O-(2-furoyl)galanthamine], the MIC in test [1] (48 h) was ≥ 500 µg/mL; in test [2] (72 h), 250 µg/mL (≈ 655 µM); in test [3] (setting [4]), 150 µM; in test [3] (setting [5]), 62.5 µg/mL.

In the case of `COC1C=CC23c4cc5c(cc4CN(CC2O)C3C1)OCO5` (stereo not shown) [haemanthamine (2), haemanthamine], the minimum inhibitory concentration (MIC) in test [1] (48 h) was ≥ 500 µg/mL; in test [2] (72 h), ≥ 500 µg/mL; in test [3] (setting [4]), ≥ 1660 µM; in test [3] (setting [5]), ≥ 500 µg/mL.
